Reference: PubChem BioAssay (NCI)
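GI50 is the concentration that inhibits growth by half. At the TGI there is no net growth.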

Key:
Test in all cases: growth of human tumour cells (NCI), 384-well format
[1] = tested on: UACC-257 melanoma
[2] = tested on: MDA-MB-231 breast
[3] = tested on: OVCAR-8 ovarian
[4] = tested on: MDA-MB-435 melanoma
[5] = tested on: HCT-15 colon
[6] = tested on: ACHN renal
[7] = tested on: CCRF-CEM leukemia
[8] = tested on: UO-31 renal
[9] = tested on: MOLT-4 leukemia
[10] = tested on: HT29 colon
[11] = tested on: RPMI-8226 leukemia
[12] = tested on: SF-268 CNS
[13] = tested on: HOP-92 NSCLC
[14] = tested on: NCI/ADR-RES ovarian
[15] = tested on: SNB-19 CNS
[16] = tested on: HCC-2998 colon
[17] = tested on: LOX IMVI melanoma
[18] = tested on: U251 glioblastoma
[19] = tested on: NCI-H226 lung
[20] = tested on: OVCAR-4 ovarian
[21] = tested on: MALME-3M melanoma
[22] = tested on: NCI-H522 lung
[23] = tested on: HOP-62 NSCLC
[24] = tested on: SN12C renal
[25] = tested on: NCI-H322M lung
[26] = tested on: SF-539 CNS
[27] = tested on: T-47D breast
[28] = tested on: K-562 leukemia
[29] = tested on: MCF7 breast

`C[C@H](c1ccc(F)cc1CCCC(=O)O)N(c1cc(F)ccc1F)S(=O)(=O)c1ccc(Cl)cc1` was tested, and the GI50 [1] was 13.6 µM, the TGI [1] was 68.4 µM and the GI50 [2] was 34 µM. It also gave a TGI [2] greater than 100 µM, a GI50 [3] of 32.1 µM and a TGI [3] greater than 100 µM. It also gave a GI50 [4] of 24 µM, a TGI [4] of 53.8 µM and a GI50 [5] of 22.4 µM. The TGI [5] was 95.5 µM, the GI50 [6] was 30.4 µM and the TGI [6] was greater than 100 µM. For the same compound, the GI50 [7] was 12.3 µM, the TGI [7] was 26.5 µM and the GI50 [8] was 15.7 µM. It also gave a TGI [8] of 33 µM, a GI50 [9] of 11.7 µM and a TGI [9] of 24.2 µM. For the same compound, the GI50 [10] was 31.3 µM, the TGI [10] was greater than 100 µM and the GI50 [11] was 19.4 µM. The TGI [11] was 36.6 µM, the GI50 [12] was 14 µM and the TGI [12] was 34.2 µM. The GI50 [13] was 13.5 µM, the TGI [13] was 44.6 µM and the GI50 [14] was 32 µM. The TGI [14] was greater than 100 µM, the GI50 [15] was 35.9 µM and the TGI [15] was greater than 100 µM. For the same compound, the GI50 [16] was 1.41 µM, the TGI [16] was 16.3 µM and the GI50 [17] was 19 µM. It also gave a TGI [17] of 45.6 µM, a GI50 [18] of 19.9 µM and a TGI [18] of 49.4 µM. The GI50 [19] was 25.2 µM, the TGI [19] was 76 µM and the GI50 [20] was 26 µM. The TGI [20] was greater than 100 µM, the GI50 [21] was 23.7 µM and the TGI [21] was greater than 100 µM. It also gave a GI50 [22] of 27.9 µM, a TGI [22] of 76.3 µM and a GI50 [23] of 16.4 µM. It also gave a TGI [23] of 37.1 µM, a GI50 [24] of 28.8 µM and a TGI [24] greater than 100 µM. The GI50 [25] was 25.6 µM, the TGI [25] was greater than 100 µM and the GI50 [26] was 23.8 µM. It also gave a TGI [26] of 66.2 µM, a GI50 [27] of 2.26 µM and a TGI [27] of 26.6 µM. For the same compound, the GI50 [28] was 27.1 µM, the TGI [28] was greater than 100 µM and the GI50 [29] was 22.7 µM. The TGI [29] was 88.9 µM.
